Experimental data as given in PubChem BioAssay AID2060895 (Molecular Pharmacology Branch, DTP, NCI, 2025).

Tested on: PDC 899932-113-R3-J6 complex spheroid viability
Assay: Anticancer human tumor 899932-113-R3-J6-PDC patient-derived melanoma cell line growth inhibition [RAS]
Conditions: for IC50: curve of first compound; for viability, T/C: stronger effect = lower value
In short: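 Multi-cell-type spheroids: tumor cells plus HUVEC endothelial cells and mesenchymal stem cells. RAS-pathway inhibitors were combined with targeted agents, each dosed in half-log steps down from clinical Cmax, or from 10 microM when Cmax was unknown.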

[1] = second compound 0.000949 µM, first compound 0.0316 µM
[2] = second compound 0.000949 µM, first compound 0.1 µM
[3] = second compound 0.000949 µM, first compound 0.316 µM
[4] = second compound 0.000949 µM, first compound 1 µM
[5] = second compound 0.003 µM, first compound 0.0316 µM
[6] = second compound 0.003 µM, first compound 0.1 µM
[7] = second compound 0.003 µM, first compound 0.316 µM
[8] = second compound 0.003 µM, first compound 1 µM
[9] = second compound 0.00949 µM, first compound 0.0316 µM
[10] = second compound 0.00949 µM, first compound 0.1 µM
[11] = second compound 0.00949 µM, first compound 0.316 µM
[12] = second compound 0.00949 µM, first compound 1 µM
[13] = second compound 0.03 µM, first compound 0.0316 µM
[14] = second compound 0.03 µM, first compound 0.1 µM
[15] = second compound 0.03 µM, first compound 0.316 µM
[16] = second compound 0.03 µM, first compound 1 µM
[17] = second compound 0.0949 µM, first compound 0.0316 µM
[18] = second compound 0.0949 µM, first compound 0.1 µM
[19] = second compound 0.0949 µM, first compound 0.316 µM
[20] = second compound 0.0949 µM, first compound 1 µM
[21] = second compound 0.3 µM, first compound 0.0316 µM
[22] = second compound 0.3 µM, first compound 0.1 µM
[23] = second compound 0.3 µM, first compound 0.316 µM
[24] = second compound 0.3 µM, first compound 1 µM
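Throughout, for viability, T/C: spheroids exposed to agents for seven days before readout; 100% = DMSO vehicle control wells.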

`CC(=O)OC12COC1CC(O)C1(C)C(=O)C(O)C3=C(C)C(OC(=O)C(O)C(NC(=O)OC(C)(C)C)c4ccccc4)CC(O)(C(OC(=O)c4ccccc4)C21)C3(C)C` (stereo unspecified) + CCn1c(-c2cccnc2C(C)OC)c2c3cc(ccc31)N1CCOC(CC(NC(=O)C(C(C)C)N(C)C(=O)C3(F)CCN(C(=O)C#CC(C)(C)N(C)C)CC3)C(=O)N3CCCC(N3)C(=O)OCC(C)(C)C2)C1 gave an IC50 (second compound 0.000949 µM) of under 31.6 nM, an IC50 (second compound 0.003 µM) of under 31.6 nM and an IC50 (second compound 0.00949 µM) of under 31.6 nM. It also gave an IC50 (second compound 0.03 µM) of under 31.6 nM, an IC50 (second compound 0.0949 µM) of under 31.6 nM and an IC50 (second compound 0.3 µM) of under 31.6 nM. For the same compound, the viability, T/C [1] was 31.4%, the viability, T/C [2] was 34.3% and the viability, T/C [3] was 33%. The viability, T/C [4] was 45.6%, the viability, T/C (second compound 0.000949 µM, first compound 3.16 µM) was 60.8% and the viability, T/C (second compound 0.000949 µM, first compound 10 µM) was 70.1%. The viability, T/C [5] was 29.2%, the viability, T/C [6] was 37.1% and the viability, T/C [7] was 36.8%. For the same compound, the viability, T/C [8] was 39.7%, the viability, T/C (second compound 0.003 µM, first compound 3.16 µM) was 58.7% and the viability, T/C (second compound 0.003 µM, first compound 10 µM) was 68.9%. The viability, T/C [9] was 33.8%, the viability, T/C [10] was 36.6% and the viability, T/C [11] was 35.1%. The viability, T/C [12] was 48.4%, the viability, T/C (second compound 0.00949 µM, first compound 3.16 µM) was 61% and the viability, T/C (second compound 0.00949 µM, first compound 10 µM) was 61%. It also gave a viability, T/C [13] of 34.9%, a viability, T/C [14] of 38% and a viability, T/C [15] of 32.9%. For the same compound, the viability, T/C [16] was 41.7%, the viability, T/C (second compound 0.03 µM, first compound 3.16 µM) was 67.3% and the viability, T/C (second compound 0.03 µM, first compound 10 µM) was 67.4%. It also gave a viability, T/C [17] of 34.8%, a viability, T/C [18] of 38.4% and a viability, T/C [19] of 37.3%. It also gave a viability, T/C [20] of 52.1%, a viability, T/C (second compound 0.0949 µM, first compound 3.16 µM) of 59.2% and a viability, T/C (second compound 0.0949 µM, first compound 10 µM) of 65.5%. It also gave a viability, T/C [21] of 28.9%, a viability, T/C [22] of 39.4% and a viability, T/C [23] of 40.8%. For the same compound, the viability, T/C [24] was 44.5%, the viability, T/C (second compound 0.3 µM, first compound 3.16 µM) was 64.3% and the viability, T/C (second compound 0.3 µM, first compound 10 µM) was 63.1%.

Work on `Nc1ccn(C2OC(CO)C(O)C2(F)F)c(=O)n1` (stereo unspecified) + CCn1c(-c2cc(N3CCN(C)CC3)cnc2C(C)OC)c2c3cc(ccc31)-c1csc(n1)CC(NC(=O)C1CC1C)C(=O)N1CCCC(N1)C(=O)OCC(C)(C)C2 yielded an IC50 (second compound 0.000949 µM) of 5.85 nM, an IC50 (second compound 0.003 µM) of under 3.16 nM and an IC50 (second compound 0.00949 µM) of under 3.16 nM. For the same compound, the IC50 (second compound 0.03 µM) was under 3.16 nM, the IC50 (second compound 0.0949 µM) was under 3.16 nM and the IC50 (second compound 0.3 µM) was under 3.16 nM. The viability, T/C (second compound 0.000949 µM, first compound 0.00316 µM) was 62.9%, the viability, T/C (second compound 0.000949 µM, first compound 0.01 µM) was 38.6% and the viability, T/C [1] was 19.2%. The viability, T/C [2] was 10.9%, the viability, T/C [3] was 10.9% and the viability, T/C [4] was 12.7%. The viability, T/C (second compound 0.003 µM, first compound 0.00316 µM) was 34.1%, the viability, T/C (second compound 0.003 µM, first compound 0.01 µM) was 22.6% and the viability, T/C [5] was 9.17%. The viability, T/C [6] was 6.99%, the viability, T/C [7] was 7.8% and the viability, T/C [8] was 7.27%. It also gave a viability, T/C (second compound 0.00949 µM, first compound 0.00316 µM) of 3.07%, a viability, T/C (second compound 0.00949 µM, first compound 0.01 µM) of 3.15% and a viability, T/C [9] of 3.74%. The viability, T/C [10] was 3.5%, the viability, T/C [11] was 3.59% and the viability, T/C [12] was 3.95%. For the same compound, the viability, T/C (second compound 0.03 µM, first compound 0.00316 µM) was 2.89%, the viability, T/C (second compound 0.03 µM, first compound 0.01 µM) was 2.31% and the viability, T/C [13] was 3.09%. The viability, T/C [14] was 3.08%, the viability, T/C [15] was 2.1% and the viability, T/C [16] was 2.81%. The viability, T/C (second compound 0.0949 µM, first compound 0.00316 µM) was 2.38%, the viability, T/C (second compound 0.0949 µM, first compound 0.01 µM) was 1.69% and the viability, T/C [17] was 2.42%. The viability, T/C [18] was 2.17%, the viability, T/C [19] was 1.85% and the viability, T/C [20] was 2.61%. It also gave a viability, T/C (second compound 0.3 µM, first compound 0.00316 µM) of 1.86%, a viability, T/C (second compound 0.3 µM, first compound 0.01 µM) of 2% and a viability, T/C [21] of 2.22%. The viability, T/C [22] was 2.4%, the viability, T/C [23] was 2.26% and the viability, T/C [24] was 1.79%.

`CCC(CC)c1cc(NC2CCC(N)C2)n2nccc2n1` (stereo unspecified) + C=CC(=O)N1CCN(c2nc(OCC3CCCN3C)nc3c(F)c(-c4nc(N)cc(C)c4C(F)(F)F)c(Cl)cc23)C(C)C1 was tested, and the IC50 (second compound 0.00316 µM) was 1540 nM, the IC50 (second compound 0.01 µM) was 1720 nM and the IC50 (second compound 0.0316 µM) was 1680 nM. It also gave an IC50 (second compound 0.1 µM) of 1730 nM, an IC50 (second compound 0.316 µM) of 1720 nM and an IC50 (second compound 1 µM) of 1610 nM. The viability, T/C (second compound 0.00316 µM, first compound 0.0316 µM) was 101%, the viability, T/C (second compound 0.00316 µM, first compound 0.1 µM) was 96.1% and the viability, T/C (second compound 0.00316 µM, first compound 0.316 µM) was 105%. The viability, T/C (second compound 0.00316 µM, first compound 1 µM) was 79.9%, the viability, T/C (second compound 0.00316 µM, first compound 3.16 µM) was 0.74% and the viability, T/C (second compound 0.00316 µM, first compound 10 µM) was 0.24%. For the same compound, the viability, T/C (second compound 0.01 µM, first compound 0.0316 µM) was 107%, the viability, T/C (second compound 0.01 µM, first compound 0.1 µM) was 98.1% and the viability, T/C (second compound 0.01 µM, first compound 0.316 µM) was 98.1%. It also gave a viability, T/C (second compound 0.01 µM, first compound 1 µM) of 93.9%, a viability, T/C (second compound 0.01 µM, first compound 3.16 µM) of 0.74% and a viability, T/C (second compound 0.01 µM, first compound 10 µM) of 0.62%. It also gave a viability, T/C (second compound 0.0316 µM, first compound 0.0316 µM) of 116%, a viability, T/C (second compound 0.0316 µM, first compound 0.1 µM) of 105% and a viability, T/C (second compound 0.0316 µM, first compound 0.316 µM) of 99%. For the same compound, the viability, T/C (second compound 0.0316 µM, first compound 1 µM) was 90%, the viability, T/C (second compound 0.0316 µM, first compound 3.16 µM) was 0.75% and the viability, T/C (second compound 0.0316 µM, first compound 10 µM) was 0.23%. For the same compound, the viability, T/C (second compound 0.1 µM, first compound 0.0316 µM) was 106%, the viability, T/C (second compound 0.1 µM, first compound 0.1 µM) was 111% and the viability, T/C (second compound 0.1 µM, first compound 0.316 µM) was 94.1%. For the same compound, the viability, T/C (second compound 0.1 µM, first compound 1 µM) was 94.1%, the viability, T/C (second compound 0.1 µM, first compound 3.16 µM) was 0.78% and the viability, T/C (second compound 0.1 µM, first compound 10 µM) was 1.07%. For the same compound, the viability, T/C (second compound 0.316 µM, first compound 0.0316 µM) was 96%, the viability, T/C (second compound 0.316 µM, first compound 0.1 µM) was 99.3% and the viability, T/C (second compound 0.316 µM, first compound 0.316 µM) was 102%. For the same compound, the viability, T/C (second compound 0.316 µM, first compound 1 µM) was 93.9%, the viability, T/C (second compound 0.316 µM, first compound 3.16 µM) was 0.72% and the viability, T/C (second compound 0.316 µM, first compound 10 µM) was 0.84%. For the same compound, the viability, T/C (second compound 1 µM, first compound 0.0316 µM) was 109%, the viability, T/C (second compound 1 µM, first compound 0.1 µM) was 103% and the viability, T/C (second compound 1 µM, first compound 0.316 µM) was 98.2%. For the same compound, the viability, T/C (second compound 1 µM, first compound 1 µM) was 84.8%, the viability, T/C (second compound 1 µM, first compound 3.16 µM) was 0.86% and the viability, T/C (second compound 1 µM, first compound 10 µM) was 0.27%.
